Source: ChEMBL document CHEMBL1201862, “PubChem BioAssay data set” (2004)
Calls of active or inactive are those of the source.

Tests used:
[1] = target: T1, DNA repair protein RAD52 homolog (Homo sapiens, UniProt P43351); type: functional, biochemical
T1 sequence (P43351 whole entry): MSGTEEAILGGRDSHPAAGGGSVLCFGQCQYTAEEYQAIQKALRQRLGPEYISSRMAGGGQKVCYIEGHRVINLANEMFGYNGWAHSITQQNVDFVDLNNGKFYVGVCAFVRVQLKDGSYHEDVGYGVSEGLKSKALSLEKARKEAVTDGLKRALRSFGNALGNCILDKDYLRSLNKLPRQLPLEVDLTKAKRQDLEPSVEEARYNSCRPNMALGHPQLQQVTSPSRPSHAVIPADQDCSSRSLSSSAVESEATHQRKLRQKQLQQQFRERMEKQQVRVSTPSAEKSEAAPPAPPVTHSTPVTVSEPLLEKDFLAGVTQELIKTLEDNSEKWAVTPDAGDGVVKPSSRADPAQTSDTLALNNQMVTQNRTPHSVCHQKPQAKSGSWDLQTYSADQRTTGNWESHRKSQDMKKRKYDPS

[2] = target: T2, Rac GTPase-activating protein 1 (Homo sapiens, UniProt Q9H0H5); test: blockers of MgcRacGAP-driven Rac1 GTP hydrolysis – biochemical, ADP Hunter fluorescence, primary and confirmatory, confirmation (AID 624330); type: functional
T2 sequence (Q9H0H5 whole entry): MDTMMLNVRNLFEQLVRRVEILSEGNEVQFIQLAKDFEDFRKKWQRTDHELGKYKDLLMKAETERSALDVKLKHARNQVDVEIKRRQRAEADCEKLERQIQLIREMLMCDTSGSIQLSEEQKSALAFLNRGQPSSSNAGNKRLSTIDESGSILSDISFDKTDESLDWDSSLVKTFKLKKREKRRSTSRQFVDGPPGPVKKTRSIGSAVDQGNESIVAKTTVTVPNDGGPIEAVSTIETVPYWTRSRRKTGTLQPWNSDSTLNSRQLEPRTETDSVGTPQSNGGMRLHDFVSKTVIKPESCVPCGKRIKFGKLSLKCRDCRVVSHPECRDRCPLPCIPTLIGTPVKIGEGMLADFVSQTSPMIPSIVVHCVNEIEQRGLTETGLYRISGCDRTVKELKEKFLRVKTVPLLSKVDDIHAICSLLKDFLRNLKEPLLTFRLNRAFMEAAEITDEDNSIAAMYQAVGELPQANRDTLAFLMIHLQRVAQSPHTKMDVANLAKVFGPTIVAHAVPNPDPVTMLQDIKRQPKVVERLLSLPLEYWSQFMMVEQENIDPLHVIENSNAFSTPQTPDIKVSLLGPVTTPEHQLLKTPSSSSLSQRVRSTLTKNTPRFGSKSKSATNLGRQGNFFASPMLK

[3] = viability loss in HeLa cells – cytotoxicity control for MgcRacGAP inhibitor project, dose response (AID 624300); type: functional
Genome polyprotein = Genome polyprotein (dengue virus type 2, UniProt P29990); test: flavivirus cap methylation enzyme inhibition – biochemical, confirmation dose response, primary screen (AID 588689); type: functional
Sequence of Genome polyprotein (P29990 2492-3391 limits assumed): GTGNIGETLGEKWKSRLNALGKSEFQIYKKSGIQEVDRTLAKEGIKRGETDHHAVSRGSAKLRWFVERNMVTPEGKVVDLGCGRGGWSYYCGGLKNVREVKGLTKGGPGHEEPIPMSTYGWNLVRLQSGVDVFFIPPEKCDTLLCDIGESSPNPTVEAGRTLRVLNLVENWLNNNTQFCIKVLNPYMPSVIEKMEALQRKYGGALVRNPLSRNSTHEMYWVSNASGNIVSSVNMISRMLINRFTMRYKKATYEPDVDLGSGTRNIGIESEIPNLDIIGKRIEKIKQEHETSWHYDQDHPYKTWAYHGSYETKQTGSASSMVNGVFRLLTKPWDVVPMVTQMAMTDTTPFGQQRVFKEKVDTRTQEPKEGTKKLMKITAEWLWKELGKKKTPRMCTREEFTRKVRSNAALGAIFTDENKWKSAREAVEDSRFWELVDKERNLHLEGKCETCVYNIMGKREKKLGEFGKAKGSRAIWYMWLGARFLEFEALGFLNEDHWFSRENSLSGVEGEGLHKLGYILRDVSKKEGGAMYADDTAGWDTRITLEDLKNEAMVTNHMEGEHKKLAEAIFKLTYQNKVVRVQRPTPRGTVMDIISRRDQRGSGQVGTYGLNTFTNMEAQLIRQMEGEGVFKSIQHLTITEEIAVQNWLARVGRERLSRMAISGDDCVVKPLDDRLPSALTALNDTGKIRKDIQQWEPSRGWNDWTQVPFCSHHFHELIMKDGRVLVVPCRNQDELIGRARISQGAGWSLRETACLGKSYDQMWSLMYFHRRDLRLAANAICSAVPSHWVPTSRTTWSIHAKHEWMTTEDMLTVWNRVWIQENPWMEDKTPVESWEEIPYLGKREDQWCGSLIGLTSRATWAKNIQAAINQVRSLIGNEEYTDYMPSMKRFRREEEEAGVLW

[4] = target: T3, Replicative DNA helicase DnaB (Mycobacterium tuberculosis, UniProt P9WMR3); test: DnaB intein splicing inhibitors, dose response, biochemical, cell-free fluorescence (AID 449749); type: functional
T3 sequence (P9WMR3 whole entry): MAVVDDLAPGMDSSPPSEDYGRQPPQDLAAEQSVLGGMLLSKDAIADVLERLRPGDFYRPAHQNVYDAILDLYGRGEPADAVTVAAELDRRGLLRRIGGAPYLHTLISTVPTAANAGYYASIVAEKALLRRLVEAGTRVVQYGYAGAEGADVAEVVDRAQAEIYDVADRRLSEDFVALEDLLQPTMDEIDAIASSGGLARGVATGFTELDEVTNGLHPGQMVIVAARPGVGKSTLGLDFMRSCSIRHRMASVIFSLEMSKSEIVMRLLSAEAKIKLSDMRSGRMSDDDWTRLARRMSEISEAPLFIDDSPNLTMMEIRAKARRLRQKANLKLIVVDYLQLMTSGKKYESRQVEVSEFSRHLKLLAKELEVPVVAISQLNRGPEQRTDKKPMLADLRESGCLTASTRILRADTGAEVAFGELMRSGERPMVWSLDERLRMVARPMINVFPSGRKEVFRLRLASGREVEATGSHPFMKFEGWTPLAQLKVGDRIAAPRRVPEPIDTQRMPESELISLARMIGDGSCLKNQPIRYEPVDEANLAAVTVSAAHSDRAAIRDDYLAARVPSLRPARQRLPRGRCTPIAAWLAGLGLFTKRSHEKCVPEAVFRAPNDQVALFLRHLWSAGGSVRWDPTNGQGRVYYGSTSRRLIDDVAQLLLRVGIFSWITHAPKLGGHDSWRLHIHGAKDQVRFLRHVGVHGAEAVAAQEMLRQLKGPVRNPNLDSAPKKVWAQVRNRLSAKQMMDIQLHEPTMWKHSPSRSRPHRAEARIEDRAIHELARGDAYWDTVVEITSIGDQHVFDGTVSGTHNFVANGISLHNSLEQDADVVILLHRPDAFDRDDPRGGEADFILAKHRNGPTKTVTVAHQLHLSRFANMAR

Vero = test: viability of Vero cells under compound – cytotoxicity control for flavivirus capping enzyme inhibitors (AID 588742); type: functional; conditions: Chlorocebus sabaeus
Protein RecA = target: T4, Protein RecA (Mycobacterium tuberculosis, UniProt P9WHJ3); test: Fluorescence Cell-Free Homogeneous Dose Retest to Identify Inhibitors of RecA-Intein Splicing Activity. [Related pubchem assays (depositor defined):AID2097, AID2223, AID489010, AID492950]; type: functional
T4 sequence (P9WHJ3 whole entry): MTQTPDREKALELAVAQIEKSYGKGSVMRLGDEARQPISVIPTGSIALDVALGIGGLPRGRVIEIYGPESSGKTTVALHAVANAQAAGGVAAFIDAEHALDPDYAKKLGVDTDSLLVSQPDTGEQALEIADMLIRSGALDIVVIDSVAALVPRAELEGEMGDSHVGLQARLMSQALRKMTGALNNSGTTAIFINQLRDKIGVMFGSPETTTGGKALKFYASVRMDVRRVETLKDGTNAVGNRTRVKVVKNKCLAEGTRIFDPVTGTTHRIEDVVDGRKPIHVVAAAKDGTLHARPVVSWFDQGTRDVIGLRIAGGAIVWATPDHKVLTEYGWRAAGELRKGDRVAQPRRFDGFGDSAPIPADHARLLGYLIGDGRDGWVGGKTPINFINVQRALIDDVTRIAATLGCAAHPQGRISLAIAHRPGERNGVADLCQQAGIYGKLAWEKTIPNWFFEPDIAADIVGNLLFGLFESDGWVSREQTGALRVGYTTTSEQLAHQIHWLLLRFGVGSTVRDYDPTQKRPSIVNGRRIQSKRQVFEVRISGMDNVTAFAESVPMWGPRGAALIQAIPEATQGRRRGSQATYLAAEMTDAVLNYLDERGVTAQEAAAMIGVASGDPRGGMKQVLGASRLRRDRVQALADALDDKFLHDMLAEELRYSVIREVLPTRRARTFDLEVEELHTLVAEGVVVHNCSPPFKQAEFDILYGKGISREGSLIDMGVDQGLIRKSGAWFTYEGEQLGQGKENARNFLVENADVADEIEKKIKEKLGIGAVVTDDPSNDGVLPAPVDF

BJ [5] = test: BJ-TERT fibroblast viability loss – cell-based, RAS-independent, luminescence, dose response (AID 1933); type: functional; conditions: Homo sapiens
BJ [6] = test: cells; type: functional, cell-based; conditions: Homo sapiens
[7] = DRD fibroblast viability loss – cell-based, non-viral oncogenic, luminescence, dose response (AID 1934); type: functional; conditions: Homo sapiens
BJ [8] = test: BJ-TERT-LT-ST fibroblast viability loss – cell-based, RAS-independent, luminescence, dose response (AID 1935); type: functional; conditions: Homo sapiens;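 further: BJ fibroblasts immortalized with TERT plus LT and ST oncogenes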
[9] = Luminescence Cell-Based Dose Retest to Confirm Inhibitors of Cancer Stem Cells. [Related pubchem assays (depositor defined):AID2717, AID2721]; type: functional; conditions: Homo sapiens
[10] = viability of uninfected HEp-2 cells – cell-based, HTS, cytotoxicity control for RSV inhibitor project, dose response (AID 2410); type: functional; conditions: human respiratory syncytial virus
[11] = fluconazole-exposed Candida albicans growth modulators – fluorescence, retest, confirmation (AID 2467); type: functional, cell-based
[12] = NIH-3T3 fibroblast cytotoxicity, dose response, cytotoxicity control, cell-based, fluorescence, Alamar Blue, secondary assay (AID 2327); type: functional;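 further: NIH-3T3 mouse fibroblasts cultured with fluconazole at 8 µg/mL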
[13] = target: T5, Heat shock factor protein 1 (Mus musculus, UniProt P38532); test: enhancement of HSF1-driven luciferase signal – cell-based, NIH3T3, luminescence, dose retest, confirmation (AID 435004); type: functional;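 further: stress induced by proteasome inhibitor MG132 added 30 min after compound; luciferase reporter driven by HSF1 response element in NIH3T3 cells; actives raise luminescence as potentiators of the MG132 stress response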
T5 sequence (P38532 whole entry): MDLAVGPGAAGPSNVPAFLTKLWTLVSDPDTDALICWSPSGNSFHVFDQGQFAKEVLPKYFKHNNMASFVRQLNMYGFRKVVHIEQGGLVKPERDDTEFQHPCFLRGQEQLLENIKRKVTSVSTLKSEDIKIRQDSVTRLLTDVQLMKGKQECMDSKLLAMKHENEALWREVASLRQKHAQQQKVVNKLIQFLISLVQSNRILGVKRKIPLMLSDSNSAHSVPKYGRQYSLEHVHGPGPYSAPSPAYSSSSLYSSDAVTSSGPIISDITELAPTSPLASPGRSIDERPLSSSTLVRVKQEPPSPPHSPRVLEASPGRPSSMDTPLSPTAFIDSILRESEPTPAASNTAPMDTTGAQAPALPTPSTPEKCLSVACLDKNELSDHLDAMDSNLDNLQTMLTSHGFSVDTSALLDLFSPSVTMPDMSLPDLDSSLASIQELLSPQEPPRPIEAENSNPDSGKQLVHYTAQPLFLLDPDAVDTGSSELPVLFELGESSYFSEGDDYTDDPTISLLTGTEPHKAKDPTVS

P388 = test: cells; type: functional; conditions: Mus musculus
P388/ADR = test: cells; type: functional; conditions: Mus musculus
SN12K1 = test: cells; type: functional; conditions: Homo sapiens

O=C(C[n+]1ccc2ccccc2c1)c1ccc2ccc3ccccc3c2c1
AC50 [1]: 4.04 µM (active)

O=C(c1ccccc1F)N1CCN(Cc2ccccc2F)CC1
IC50 [2]: 182 µM (active) | CC50 [3]: 100 µM (active)

CCn1cc(C(=O)NN)c(=O)c2cc(F)c(N3CCN(C)CC3)cc21
AC50 [1]: 15.7 µM (active)

COC(=O)c1c(NC(=O)/C=C/C(=O)O)sc(C)c1-c1ccc(C(C)C)cc1
IC50 (Genome polyprotein): 65 µM (active) | AC50 [4]: 6.48 µM (active) | CC50 (Vero): > 40 µM (active) | EC50 (Protein RecA): 2.4 µM (active)

COc1ccc(N2CCc3c(C)nc4c(OC)cccc4c32)cc1
EC50 (BJ [5]): 3.48 µM (inconclusive) | EC50 (BJ [6]): 20 µM (inconclusive) | AC50 [1]: 12.3 µM (active) | EC50 [7]: 2.68 µM (active) | EC50 (BJ [8]): 1.26 µM (inconclusive)

CN1CCN(CC(=O)Nc2nc(-c3c[nH]c4ccccc34)cs2)CC1
AC50 [1]: 11.6 µM (active)

Cc1cccc(Nc2nc(-c3ccc(O)cc3O)cs2)n1
AC50 [9]: 6.88 µM (active) | CC50 [10]: 43.6 µM (active) | CC50 (Vero): > 40 µM (active)

CCCCn1c(SCC(=O)c2ccc(O)c(O)c2)nc2ccsc2c1=O
IC50 [2]: 49.7 µM (active) | EC50 [11]: > 38 µM (not active) | EC50 [12]: 12.9 µM (active) | EC50 [13]: 31.7 µM (active) | CC50 [3]: 100 µM (active)

CCOC(=O)c1c(CNc2ccncc2)n(C)c2cc(Br)c(O)cc12
AC50 [1]: 15.6 µM (active)

O=C1CCCN1CCC/N=c1/cc2n(-c3ccc(Cl)cc3)c3ccccc3nc-2cc1Nc1ccc(Cl)cc1
GI50 (P388): 3.45 µM (inactive) | GI50 (P388/ADR): 3.53 µM (inactive) | GI50 (SN12K1): 9.66 µM (inactive)

C=C1C(=O)O[C@@H]2[C@H](O)[C@@H](C)[C@@H]3C=CC(=O)[C@@]3(C)[C@@H](OC(=O)/C(C)=C/C)[C@H]12
GI50 (P388): 0.0933 µM (active) | GI50 (P388/ADR): 0.104 µM (active) | GI50 (SN12K1): 0.34 µM (active)

CC(C)(C)c1ccc2c(c1)OP1(Oc3c(Cl)cc(Cl)c4cccnc34)(O2)Oc2ccc(C(C)(C)C)cc2O1
GI50 (P388): 0.889 µM (active) | GI50 (P388/ADR): 2.84 µM (inactive) | GI50 (SN12K1): 6.21 µM (inactive)

COc1cc2c(cc1O)N=C[C@@H]1CC[C@@H](O)N1C2=O.COc1cc2c(cc1O)N=C[C@@H]1CC[C@H](O)N1C2=O
GI50 (P388): 0.582 µM (active) | GI50 (P388/ADR): 0.173 µM (active) | GI50 (SN12K1): 0.53 µM (active)

CS(=O)(=O)CS(=O)(=O)OCCCl
GI50 (P388): 17.9 µM (inactive) | GI50 (P388/ADR): 27.7 µM (inactive) | GI50 (SN12K1): 152 µM (inactive)

Oc1ccc(/C=N/n2c(-c3ccco3)cs/c2=N\c2cccnc2)c(O)c1
IC50 [2]: 43.3 µM (active) | CC50 [3]: 100 µM (active)

Sc1nnc(-c2ccco2)n1/N=C/C=C/c1ccco1
CC50 (Vero): > 40 µM (active)

C[n+]1ccc(Nc2ccc(NC(=O)c3ccc(Nc4cc[n+](C)c5ccc([N+](=O)[O-])cc45)cc3[N+](=O)[O-])cc2)cc1
GI50 (P388): 0.771 µM (active) | GI50 (SN12K1): 23.9 µM (inactive)
